Results published in patent US12208079B2, “Enantiomers of A2-73, analogues, and sigma agonist activity” (Anavex Life Sciences Corp., priority 2015, dated 2025).

Key:
σ1 (h) = σ1 (h) (Homo sapiens, UniProt Q99720); assay: σ1 (h) receptor binding assay, [3H](+)pentazocine; details: hydrochloride; for % of Control Specific Binding, 1st / % of Control Specific Binding, 2nd / % of Control Specific Binding, Mean: 1.0E−06 M; for % of Control Specific Binding, 1st: 1st individual value; for % of Control Specific Binding, 2nd: 2nd individual value; for % Inhibition of Control Specific Binding: test concentration 1.0E−06 M
Source text: (§1) The specific ligand binding to the receptors is defined as the difference between the total binding and the nonspecific binding determined in the presence of an excess of unlabelled ligand.
(§2) The results are expressed as a percent of control specific binding and as a percent inhibition of control specific binding obtained in the presence of the test compounds. Individual and mean values are presented in the results section.
(§3) The IC50 values (concentration causing a half-maximal inhibition of control specific binding) and Hill coefficients (nH) were determined by non-linear regression analysis of the competition curves using Hill equation curve fitting. The inhibition constants (Ki) were calculated from the Cheng Prusoff equation (Ki=IC50/(1+(L/KD)), where L=concentration of radioligand in the assay, and KD=affinity of the radioligand for the receptor).

σ2 = biological target: T1, σ2 (Rattus norvegicus, UniProt Q5U3Y7); assay: σ2 receptor binding assay, [3H]DTG (+ 300 nM (+)pentazocine); details: for % of Control Specific Binding, 1st / % of Control Specific Binding, 2nd / % of Control Specific Binding, Mean: 1.0E−06 M; for % of Control Specific Binding, 1st: 1st individual value; for % of Control Specific Binding, 2nd: 2nd individual value; for % Inhibition of Control Specific Binding: test concentration 1.0E−06 M
T1 sequence (Q5U3Y7 1-176): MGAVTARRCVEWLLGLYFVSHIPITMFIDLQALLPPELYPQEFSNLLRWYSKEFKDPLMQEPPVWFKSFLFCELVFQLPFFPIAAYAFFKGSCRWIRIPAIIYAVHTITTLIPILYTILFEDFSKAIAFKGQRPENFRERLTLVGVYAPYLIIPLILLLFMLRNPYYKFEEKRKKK
Source text: as §1, §2, §3

muscarinic M1 receptors [1] = assay: Isolated organ bioassay, test for agonist activity, field-stimulated rabbit vas deferens; format: biochemical; details: for Effect on twitch contraction amplitude (in words): untreated field-stimulated tissues
Description: (§4) Prostatic segments of rabbit vas deferens were suspended in 20-ml organ baths containing an oxygenated (95% O2 and 5% CO2) and pre-warmed (30° C.) physiological salt solution of the following composition (in mM): NaCl 118.0, KCl 4.7, MgSO4 0.6, CaCl2) 2.5, KH2PO4 1.2, NaHCO325 and glucose 11.0 (pH 7.4).
(§5) Yohimbine (1 μM) and naloxone (1 μM) were also present throughout the experiments to block the α2-adrenergic and opioid receptors, respectively.
(§6) The tissues were connected to force transducers for isometric tension recordings. They were stretched to a resting tension of 1 g then allowed to equilibrate for 60 min during which time they were washed repeatedly and the tension readjusted. Thereafter, they were stimulated electrically with square wave pulses (submaximal intensity, 1 msec duration, 0.1 Hz) delivered by a constant current stimulator.
The tissues were exposed to a submaximal concentration of the reference agonist McN-A-343 (1 μM) to verify responsiveness and to obtain a control response. Following washings and recovery of the initial twitch contractions, the tissues were exposed to the test compounds or the same agonist which were left in contact with the tissues until a stable response was obtained or for a maximum of 15 min.
(§7) The parameter measured was the maximum change in the amplitude of the electrically-evoked contractions induced by the compounds.
(§8) The results are expressed as a percent of the control response to McN-A-343 (mean values).

muscarinic M1 receptors [2] = assay: Isolated organ bioassay, test for antagonist activity, field-stimulated rabbit vas deferens; format: biochemical; details: for Response to McN-A-343 (1.0E−06M) in the presence of the compound, percent of the control response: mean, n=2; for Behaviour at the M1 receptors (conclusion): rabbit vas deferens
Description: as §4, §5, §6
The tissues were exposed to a submaximal concentration of the reference agonist McN-A-343 (1 μM) to obtain a control response.
If it occurred, a recovery of the twitch contraction amplitude by the test compounds indicated an antagonist activity at the M1 receptors.
as §7, §8

[3] = Treatment of Alzheimer's patients (Examples 1 and 5); format: in vivo
Description: A person diagnosed with early stage Alzheimer's dementia is treated with 10 mg of ⊖Anevex2-73 substantially free of Anavex2-73 ? , once per week for three years.
A patient is diagnosed with AD and treated with 10 mg of ⊖Anevex2-73 substantially free of Anavex2-73 ? daily for 3 yrs.

[4] = Neuroprotection against oxidative (anoxic) stress, balloon ascent (Example 2); format: in vivo; details: 10 mgs oral daily for 5 days before ascent to 6,000 meters without oxygen assist
Source text: A person balloonist, anticipating anoxic stress, is orally administered 10 mgs of oral ⊖Anevex2-73 substantially free of Anavex2-73 ? daily for 5 days preceding a balloon ascent.

[5] = in vivo, po
[6] = Neuroprotection in stroke patient (Example 4); format: in vivo; details: person, ischemic event of middle cerebral artery, 1 mg i.v.
Description: A person enters the emergency room and is diagnosed with an ischemic event involving the middle cerebral artery, with symptomatology onset being less than 1 hr. Immediately, the patient is administered an i.v. supplemented with 1 mg of ⊖Anevex2-73 substantially free of Anavex2-73 ? while blood supply to the restricted area is restored.

Sequence of σ1 (h) (Q99720 whole entry): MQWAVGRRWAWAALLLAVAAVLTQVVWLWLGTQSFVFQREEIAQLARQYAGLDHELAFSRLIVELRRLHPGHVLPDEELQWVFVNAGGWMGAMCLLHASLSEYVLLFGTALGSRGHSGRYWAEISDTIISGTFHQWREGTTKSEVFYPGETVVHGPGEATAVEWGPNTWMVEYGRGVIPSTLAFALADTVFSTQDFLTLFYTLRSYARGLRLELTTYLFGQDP

| SMILES | % of Control Specific Binding, 1st (σ1 (h)) | % of Control Specific Binding, 2nd (σ1 (h)) | % of Control Specific Binding, Mean (σ1 (h)) | % Inhibition of Control Specific Binding (σ1 (h)) | % of Control Specific Binding, 1st (σ2; hydrochloride) | % of Control Specific Binding, 2nd (σ2; hydrochloride) | % of Control Specific Binding, Mean (σ2; hydrochloride) | Effect on twitch contraction amplitude (in words) (muscarinic M1 receptors [1]) | Behaviour at the M1 receptors (conclusion) (muscarinic M1 receptors [2]) | % Inhibition of Control Specific Binding (σ2; hydrochloride) | also measured |
| --- | --- | --- | --- | --- | --- | --- | --- | --- | --- | --- | --- |
| CN(C)CC1COC(c2ccccc2)(c2ccccc2)C1.Cl (single isomer, unassigned; (+)) [(+) A1-41, tetrahydro-N,N-dimethyl-5,5-diphenyl-3-furanmethanamine hydrochloride] | 35.0% | 32.9% | 34.0% | 66% | 60.0% | 56.8% | 58.4% | did not decrease the twitch contraction amplitude but caused a slight to moderate increase | behave as antagonists at the M1 receptors |  | % Inhibition of Control Specific Binding (σ2; listed as (+) A1-14, hydrochloride): 42%; Response to the compound (decrease in twitch contraction amplitude), percent of the control response to McN-A-343 (muscarinic M1 receptors [1]; compound 1.0E−05M, mean, n=2, listed as (+) AE 14, hydrochloride): −31%; Response to the compound (decrease in twitch contraction amplitude), percent of the control response to McN-A-343 (muscarinic M1 receptors [1]; compound 1.0E−06M, mean, n=2, listed as (+) AE 14, hydrochloride): −16%; Response to McN-A-343 (1.0E−06M) in the presence of the compound, percent of the control response (muscarinic M1 receptors [2]; compound 1.0E−05M, listed as (+) AE 14, hydrochloride): 1%; Response to McN-A-343 (1.0E−06M) in the presence of the compound, percent of the control response (muscarinic M1 receptors [2]; compound 1.0E−06M, listed as (+) AE 14, hydrochloride): 13% |
| CN(C)CC1CCOC1(c1ccccc1)c1ccccc1.Cl (single isomer, unassigned; (+)) [(+) A2-73, tetrahydro-N,N-dimethyl-2,2-diphenyl-3-furanmethanamine hydrochloride] | 81.5% | 81.1% | 81.3% | 19% | 88.9% | 83.2% | 86.1% |  |  | 14% |  |
| CN(C)CC1COC(c2ccccc2)(c2ccccc2)C1.Cl (single isomer, unassigned; (-)) [(−) A1-41, tetrahydro-N,N-dimethyl-5,5-diphenyl-3-furanmethanamine hydrochloride] | 35.7% | 33.3% | 34.5% | 65% | 41.0% | 40.3% | 40.7% | did not decrease the twitch contraction amplitude but caused a slight to moderate increase | behave as antagonists at the M1 receptors |  | % Inhibition of Control Specific Binding (σ2; listed as (−) A1-14, hydrochloride): 59%; Response to the compound (decrease in twitch contraction amplitude), percent of the control response to McN-A-343 (muscarinic M1 receptors [1]; compound 1.0E−05M, mean, n=2, listed as (−) AE 14, hydrochloride): −8%; Response to the compound (decrease in twitch contraction amplitude), percent of the control response to McN-A-343 (muscarinic M1 receptors [1]; compound 1.0E−06M, mean, n=2, listed as (−) AE 14, hydrochloride): −5%; Response to McN-A-343 (1.0E−06M) in the presence of the compound, percent of the control response (muscarinic M1 receptors [2]; compound 1.0E−05M, listed as (−) AE 14, hydrochloride): 9%; Response to McN-A-343 (1.0E−06M) in the presence of the compound, percent of the control response (muscarinic M1 receptors [2]; compound 1.0E−06M, listed as (−) AE 14, hydrochloride): 20% |
| CN(C)CC1CCOC1(c1ccccc1)c1ccccc1.Cl (single isomer, unassigned; (-)) [(−) A2-73, tetrahydro-N,N-dimethyl-2,2-diphenyl-3-furanmethanamine hydrochloride] | 50.7% | 50.0% | 50.4% | 50% | 126.1% | 100.6% | 113.4% | did not decrease the twitch contraction amplitude but caused a slight to moderate increase | behave as antagonists at the M1 receptors | −13% | Response to the compound (decrease in twitch contraction amplitude), percent of the control response to McN-A-343 (muscarinic M1 receptors [1]; compound 1.0E−05M, mean, n=2): −20%; Response to the compound (decrease in twitch contraction amplitude), percent of the control response to McN-A-343 (muscarinic M1 receptors [1]; compound 5.0E−05M, mean, n=2): −33%; Response to McN-A-343 (1.0E−06M) in the presence of the compound, percent of the control response (muscarinic M1 receptors [2]; compound 1.0E−05M): 16%; Response to McN-A-343 (1.0E−06M) in the presence of the compound, percent of the control response (muscarinic M1 receptors [2]; compound 5.0E-05M): −1%; Cognitive score ([3]; person with AD, 10 mg daily for 3 yrs): stabilizes and then increases slowly and regularly; Brain content in amyloid peptide oligomers on autopsy ([3]; person, 10 mg once per week for three years): very low content in amyloid peptide oligomers; Mental function tested quarterly ([3]; person, early stage Alzheimer's dementia, 10 mg once per week for three years): does not decrease over the period; Anoxic damage [4]: suffers no anoxic damage; Damage after neurotoxin exposure [5]: suffers no damage; CT/MRI imaging of the affected region [6]: no signs of lesioning in the affected region; Daily testing of cognitive and motor systems [6]: no deficits in physical or mental capacities |
| C[N+](C)(C)CC#CCOC(=O)Nc1cccc(Cl)c1.[Cl-] [McN-A-343, reference compound] |  |  |  |  |  |  |  | concentration-dependent decrease in the twitch contraction amplitude |  |  | Response to the compound + pirenzepine, percent of the control response to McN-A-343 (muscarinic M1 receptors [1]; + pirenzepine (1.0E−07M), mean, n=2): −5%; Response to the compound (decrease in twitch contraction amplitude), percent of the control response to McN-A-343 (muscarinic M1 receptors [1]; compound 1.0E−06M, mean, n=2): 99%; Response to the compound (decrease in twitch contraction amplitude), percent of the control response to McN-A-343 (muscarinic M1 receptors [1]; compound 1.0E−07M, mean, n=2): 29%; Response to the compound (decrease in twitch contraction amplitude), percent of the control response to McN-A-343 (muscarinic M1 receptors [1]; compound 3.0E−07M, mean, n=2): 67% |
